Where two headings read alike, the source gives them in different places.
How the values were obtained:
influenza A virus = format: cell-based
[1] = target: whole virus influenza neuraminidase, A/NWS/Tokyo/3/67/H1N2 (Influenza A virus, UniProt P06820); format: biochemical; conditions: read-out: inhibition constants (IC50), NWS/Tokyo
[2] = test system: influenza strain X-31 (H3N2); format: cell-based
influenza strain Tokyo A = format: cell-based

Chain of whole virus influenza neuraminidase, A/NWS/Tokyo/3/67/H1N2 (P06820 whole entry, looked up): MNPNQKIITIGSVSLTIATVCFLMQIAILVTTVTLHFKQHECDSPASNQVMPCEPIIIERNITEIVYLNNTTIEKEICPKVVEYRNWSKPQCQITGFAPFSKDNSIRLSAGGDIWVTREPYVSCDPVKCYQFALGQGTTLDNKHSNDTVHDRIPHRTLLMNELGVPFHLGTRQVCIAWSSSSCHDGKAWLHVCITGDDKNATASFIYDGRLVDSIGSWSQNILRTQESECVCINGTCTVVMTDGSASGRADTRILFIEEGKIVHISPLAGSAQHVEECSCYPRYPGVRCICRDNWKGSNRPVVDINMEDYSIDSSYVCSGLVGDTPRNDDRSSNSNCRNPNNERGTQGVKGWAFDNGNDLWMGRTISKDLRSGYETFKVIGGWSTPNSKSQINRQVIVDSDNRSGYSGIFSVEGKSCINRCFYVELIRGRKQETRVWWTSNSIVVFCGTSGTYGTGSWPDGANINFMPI

Row | Molecule | MTC, minimum cytotoxic drug concentration (MDCK cells) | ID50, minimum compound concentration that inhibits cytopathic effect by 50% (influenza A virus) | MTC, minimum cytotoxic drug concentration (MDCK cells; dog) | other results
1 | 7-{6′-{6″-[6″′-(6″″-(6′″″-aminocaproyl)-aminocaproyl)-aminocaproyl]-aminocaproyl}-aminohexyl-carbamoyl-oxy-4-guanidino-Neu5Ac2en [Compound 2c] | >100 | 3.0 µg/mL | – | –
2 | CC(=O)N[C@H]1[C@H]([C@H](O)[C@H](O)CO)OC(C(=O)O)=C[C@@H]1O [DANA, 2-deoxy-2,3-didehydro-N-acetylneuraminic acid] | – | – | – | IC50 [1]: 6 µM
3 | CC(=O)NC1C(NC(=N)N)C=C(C(=O)O)OC1[C@H](O)[C@H](O)CO (stereo partly shown) [GG167, 4-guanidino-Neu5Ac2en] | – | <0.32 µg/mL | >100 | –
4 | NC(=O)c1ncn([C@@H]2O[C@H](CO)[C@@H](O)[C@H]2O)n1 [Ribavirin] | – | 1.0 to 2.6 µg/mL | >32 | –
5 | Fetuin | – | – | – | Lowest Concentration (μM of GG167 units) that Inhibited Agglutination, X-31 [2]: <0.48 µM; Lowest Concentration (μM of GG167 units) that Inhibited Agglutination, TOKYO (influenza strain Tokyo A): 5.86 µM
6 | Polyacrylamide | >100 | – | – | –

— patent publication US6680054B1 (priority 1996, dated 2004)
